Test results from PubChem BioAssay AID1963969 (Molecular Pharmacology Branch, DTP, NCI, 2024).

Test system: 817829-284-R-J1-PDC multi-cell spheroid viability
Test: Anticancer human tumor 817829-284-R-J1-PDC patient-derived colon adenocarcinoma cell line growth inhibition [PI3K]
Conditions: for IC50: curve of first compound; for viability, T/C: stronger effect = lower value
Text: Combinatorial screen of targeted agents with the PI3K inhibitors inavolisib, alpelisib, duvelisib, and copanlisib in multi-cell type tumor spheroids
A high-throughput screen of multi-cell type tumor spheroids was designed to identify active combinations of targeted small molecules and PI3K pathway inhibitors. Complex spheroids include a stromal component modeled by human endothelial cells (HUVEC) and fibroblasts modeled by human mesenchymal stem cells (MSCs). The concentration ranges selected for each drug and investigational agent were based upon clinically achievable concentrations if the clinical Cmax of the agent was known.
Compounds. The drugs and investigational agents: inavolisib (NSC800729), alpelisib (NSC765974), duvelisib (NSC772469), copanlisib (NSC816437), ipatasertib (NSC767898), afuresertib (NSC778305), talazoparib (NSC767125), sapanisertib (NSC764658), selumetinib (NSC741078), tovorafenib (DAY101, NSC766906), vemurafenib (NSC761431), ravoxertinib (NSC781343), sotorasib (NSC818433), MRTX1133 (NSC 836407), abemaciclib (NSC 768073), palbociclib (NSC758247), venetoclax (NSC 766270), SY5609 (NSC837396), enzalutamide (NSC755605), and darolutamide (NSC825331), were obtained from the National Cancer Institute (NCI) Developmental Therapeutics Program Chemical Repository. The FDA-approved anticancer drug set is available from the NCI Developmental Therapeutics Program. […] The stock solutions were prepared in dimethyl sulfoxide (DMSO, Sigma-Aldrich, St. Louis, MO, cat. D2650) at 800-fold the tested concentration and stored at -70 degrees C prior to their use. All drugs and investigational agents were tested over a range starting from a high concentration at or near the clinical Cmax and decreasing in half-log increments. If the clinical Cmax for an agent had not been determined, the highest concentration tested was 10 microM.
Cell Culture. All cells were maintained in an incubator at 37 degrees C and 5% CO2 with 95% humidity. The PDC lines were cultured according to standard operating procedures established by the NCI PDMR (https://pdmr.cancer.gov/sops/default.htm). All PDCs were thawed and cultured in Matrigel-coated flasks prepared with a working solution of 1X Ham's F-12 nutrient mix, without supplementation (Invitrogen, Waltham, MA, cat. 11765054), 100 U/mL penicillin-streptomycin (Invitrogen, cat. 15140122), and 2.5% Matrigel (Corning Inc., Corning, NY, cat. 354248) for the first three passages. The 354836-022-R-J1-PDC, 475296-252-R-J1-PDC, and 997726-040-R-J2-PDC lines were cultured in 6A media, which includes advanced DMEM/F-12 (Thermo Fisher Scientific, cat. 12634028), 10 mM HEPES (Thermo Fisher Scientific, cat. 15630080), 1X GlutaMAX supplement (Thermo Fisher Scientific, cat. 35050061), 0.1 mg/mL primocin (InvivoGen, San Diego, CA, cat. ant-pm-2), 10% defined fetal bovine serum, heat inactivated (HyClone Laboratories Inc., Logan, UT, cat. SH30070.03HI), 50% L-WRN conditioned media (ATCC, cat. CRL-3276), 1.25 mM N-Acetyl-L-cysteine (Sigma-Aldrich, cat. A9165), 10 mM nicotinamide (Sigma-Aldrich, cat. N0636), 1X B-27 supplement (Thermo Fisher Scientific, cat. 17504044), 1X N-2 supplement (Thermo Fisher Scientific, cat. 17502048), and 10 microM Y-27632 dihydrochloride (Tocris Bioscience, Bristol, United Kingdom, cat. 1254). The 624824-186-R-J2-PDC line was cultured in 6C/Colon 1B media, which includes all 6A media components plus 50 ng/mL human EGF recombinant protein (Thermo Fisher Scientific, cat. PHG0311). […]

[1] = second compound 0.0316 µM, first compound 0.0316 µM
[2] = second compound 0.0316 µM, first compound 0.1 µM
[3] = second compound 0.0316 µM, first compound 0.316 µM
[4] = second compound 0.0316 µM, first compound 1 µM
[5] = second compound 0.0316 µM, first compound 3.16 µM
[6] = second compound 0.0316 µM, first compound 10 µM
[7] = second compound 0.1 µM, first compound 0.0316 µM
[8] = second compound 0.1 µM, first compound 0.1 µM
[9] = second compound 0.1 µM, first compound 0.316 µM
[10] = second compound 0.1 µM, first compound 1 µM
[11] = second compound 0.1 µM, first compound 3.16 µM
[12] = second compound 0.1 µM, first compound 10 µM
[13] = second compound 0.316 µM, first compound 0.0316 µM
[14] = second compound 0.316 µM, first compound 0.1 µM
[15] = second compound 0.316 µM, first compound 0.316 µM
[16] = second compound 0.316 µM, first compound 1 µM
[17] = second compound 0.316 µM, first compound 3.16 µM
[18] = second compound 0.316 µM, first compound 10 µM
[19] = second compound 1 µM, first compound 0.0316 µM
[20] = second compound 1 µM, first compound 0.1 µM
[21] = second compound 1 µM, first compound 0.316 µM
[22] = second compound 1 µM, first compound 1 µM
[23] = second compound 1 µM, first compound 3.16 µM
[24] = second compound 1 µM, first compound 10 µM
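Also: spheroids exposed to agents for seven days before readout.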
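For viability, T/C in this document: percent of vehicle DMSO control viability which is 100%.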

CC(Cn1ccc(-c2ccc(C#N)c(Cl)c2)n1)NC(=O)c1cc(C(C)O)[nH]n1 (centres undefined) + CC(Nc1ccc2c(c1)OCCn1cc(N3C(=O)OCC3C(F)F)nc1-2)C(N)=O
IC50 (second compound 0.00316 µM): > 10 µM | IC50 (second compound 0.01 µM): 8.89 µM | IC50 (second compound 0.0316 µM): > 10 µM | IC50 (second compound 0.1 µM): > 10 µM | IC50 (second compound 0.316 µM): > 10 µM | IC50 (second compound 1 µM): > 10 µM | viability, T/C (second compound 0.00316 µM, first compound 0.0316 µM): 91.8% | viability, T/C (second compound 0.00316 µM, first compound 0.1 µM): 127% | viability, T/C (second compound 0.00316 µM, first compound 0.316 µM): 99% | viability, T/C (second compound 0.00316 µM, first compound 1 µM): 96.2% | viability, T/C (second compound 0.00316 µM, first compound 3.16 µM): 94.4% | viability, T/C (second compound 0.00316 µM, first compound 10 µM): 53.1% | viability, T/C (second compound 0.01 µM, first compound 0.0316 µM): 140% | viability, T/C (second compound 0.01 µM, first compound 0.1 µM): 86.2% | viability, T/C (second compound 0.01 µM, first compound 0.316 µM): 86.4% | viability, T/C (second compound 0.01 µM, first compound 1 µM): 70.8% | viability, T/C (second compound 0.01 µM, first compound 3.16 µM): 63.5% | viability, T/C (second compound 0.01 µM, first compound 10 µM): 57.4% | viability, T/C [1]: 67.4% | viability, T/C [2]: 96.8% | viability, T/C [3]: 78% | viability, T/C [4]: 78.6% | viability, T/C [5]: 74.1% | viability, T/C [6]: 59.9% | viability, T/C [7]: 81.5% | viability, T/C [8]: 114% | viability, T/C [9]: 62.3% | viability, T/C [10]: 117% | viability, T/C [11]: 79.5% | viability, T/C [12]: 55.3% | viability, T/C [13]: 77.1% | viability, T/C [14]: 66.1% | viability, T/C [15]: 76.8% | viability, T/C [16]: 58.7% | viability, T/C [17]: 110% | viability, T/C [18]: 46.4% | viability, T/C [19]: 75.5% | viability, T/C [20]: 39% | viability, T/C [21]: 65.6% | viability, T/C [22]: 72.9% | viability, T/C [23]: 60% | viability, T/C [24]: 50.8%

CCCS(=O)(=O)Nc1ccc(F)c(C(=O)c2c[nH]c3ncc(-c4ccc(Cl)cc4)cc23)c1F + CC(Nc1ncnc2nc[nH]c12)c1cc2cccc(Cl)c2c(=O)n1-c1ccccc1
IC50 (second compound 0.0316 µM): 4.76 µM | IC50 (second compound 0.1 µM): 4.21 µM | IC50 (second compound 0.316 µM): 3.33 µM | IC50 (second compound 1 µM): 4.31 µM | IC50 (second compound 3.16 µM): 1.35 µM | IC50 (second compound 10 µM): 1.79 µM | viability, T/C [1]: 110% | viability, T/C [2]: 61.7% | viability, T/C [3]: 62.3% | viability, T/C [4]: 52% | viability, T/C [5]: 90.5% | viability, T/C [6]: 4.04% | viability, T/C [7]: 78% | viability, T/C [8]: 72.6% | viability, T/C [9]: 72.7% | viability, T/C [10]: 89% | viability, T/C [11]: 63.9% | viability, T/C [12]: 7.99% | viability, T/C [13]: 98.2% | viability, T/C [14]: 70% | viability, T/C [15]: 101% | viability, T/C [16]: 60.6% | viability, T/C [17]: 57.8% | viability, T/C [18]: 4.81% | viability, T/C [19]: 66.9% | viability, T/C [20]: 70.5% | viability, T/C [21]: 87% | viability, T/C [22]: 38.3% | viability, T/C [23]: 68.3% | viability, T/C [24]: 6.14% | viability, T/C (second compound 3.16 µM, first compound 0.0316 µM): 114% | viability, T/C (second compound 3.16 µM, first compound 0.1 µM): 89% | viability, T/C (second compound 3.16 µM, first compound 0.316 µM): 68.6% | viability, T/C (second compound 3.16 µM, first compound 1 µM): 59% | viability, T/C (second compound 3.16 µM, first compound 3.16 µM): 47.2% | viability, T/C (second compound 3.16 µM, first compound 10 µM): 8.3% | viability, T/C (second compound 10 µM, first compound 0.0316 µM): 72.4% | viability, T/C (second compound 10 µM, first compound 0.1 µM): 75.2% | viability, T/C (second compound 10 µM, first compound 0.316 µM): 68.9% | viability, T/C (second compound 10 µM, first compound 1 µM): 49.8% | viability, T/C (second compound 10 µM, first compound 3.16 µM): 47.7% | viability, T/C (second compound 10 µM, first compound 10 µM): 9.39%
